According to ChEMBL document CHEMBL2074507, “Transport of small organic cations in the rat liver. The role of the organic cation transporter OCT1” (Naunyn Schmiedebergs Arch Pharmacol, 1996):

B1: Solute carrier family 22 member 1 (Rattus norvegicus) (protein)
chain: MPTVDDVLEQVGEFGWFQKQAFLLLCLISASLAPIYVGIVFLGFTPGHYCQNPGVAELSQRCGWSQAEELNYTVPGLGPSDEASFLSQCMRYEVDWNQSTLDCVDPLSSLVANRSQLPLGPCEHGWVYDTPGSSIVTEFNLVCGDAWKVDLFQSCVNLGFFLGSLVVGYIADRFGRKLCLLVTTLVTSVSGVLTAVAPDYTSMLLFRLLQGMVSKGSWVSGYTLITEFVGSGYRRTTAILYQMAFTVGLVGLAGVAYAIPDWRWLQLAVSLPTFLFLLYYWFVPESPRWLLSQKRTTRAVRIMEQIAQKNGKVPPADLKMLCLEEDASEKRSPSFADLFRTPNLRKHTVILMYLWFSCAVLYQGLIMHVGATGANLYLDFFYSSLVEFPAAFIILVTIDRIGRIYPIAASNLVTGAACLLMIFIPHELHWLNVTLACLGRMGATIVLQMVCLVNAELYPTFIRNLGMMVCSALCDLGGIFTPFMVFRLMEVWQALPLILFGVLGLTAGAMTLLLPETKGVALPETIEEAENLGRRKSKAKENTIYLQVQTGKSSST

Experiments:
[1] = target: T1, Solute carrier family 22 member 1 (Rattus norvegicus, UniProt Q63089); assay: TP_TRANSPORTER: inhibition of MPP+ uptake in OCT1-expressing HEK293 cells; assay type: functional, cell-based
T1 sequence (Q63089 whole entry): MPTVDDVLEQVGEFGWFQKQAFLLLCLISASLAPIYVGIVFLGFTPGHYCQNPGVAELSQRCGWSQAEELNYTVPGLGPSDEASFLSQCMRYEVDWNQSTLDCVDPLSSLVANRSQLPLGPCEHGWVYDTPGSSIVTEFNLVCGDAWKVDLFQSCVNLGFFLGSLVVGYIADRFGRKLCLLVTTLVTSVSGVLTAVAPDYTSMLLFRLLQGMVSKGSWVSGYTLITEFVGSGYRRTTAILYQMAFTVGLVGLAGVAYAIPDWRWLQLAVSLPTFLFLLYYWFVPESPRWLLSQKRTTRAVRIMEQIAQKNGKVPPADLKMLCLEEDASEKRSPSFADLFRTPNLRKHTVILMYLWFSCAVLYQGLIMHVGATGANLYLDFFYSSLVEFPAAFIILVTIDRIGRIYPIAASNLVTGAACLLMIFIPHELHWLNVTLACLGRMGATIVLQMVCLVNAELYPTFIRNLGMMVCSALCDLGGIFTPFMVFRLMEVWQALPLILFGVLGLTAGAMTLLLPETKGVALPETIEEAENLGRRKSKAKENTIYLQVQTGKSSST

[2] = substrate: C[n+]1ccc(-c2ccccc2)cc1; assay: TP_TRANSPORTER: uptake in OCT1-expressing HEK293 cells; assay type: functional, cell-based

| Molecule | Ki [1] [µM] | Km [2] [µM] |
| --- | --- | --- |
| CCN1/C(=C/c2ccc3ccccc3[n+]2CC)C=Cc2ccccc21 | 0.5 | – |
| Clc1cccc(Cl)c1N=C1NCCN1 [CLONIDINE] | 1.4 | – |
| C[C@]12C[C@H](O)[C@H]3[C@@H](CCC4=CC(=O)CC[C@@]43C)[C@@H]1CC[C@@H]2C(=O)CO [CORTICOSTERONE] | 72 | – |
| CC[n+]1c(CC2C=C(C)N=C(c3ccccc3)N2C)ccc2ccccc21 (configuration not stated) [Cyanine-863] | 0.67 | – |
| CC(C)N1/C(=C\c2cc[n+](C(C)C)c3ccccc23)C=Cc2ccccc21 [DISPROCYNIUM24] | 0.11 | – |
| COc1cc(C(O)CNC(C)C)ccc1O (configuration not stated) [METIPRENALINE] | 25 | – |
| B1 | – | 13 |
